Test results: ChEMBL document CHEMBL1121828, “Quantitative structure-selectivity relationships. Comparison of the inhibition of Escherichia coli and bovine liver dihydrofolate reductase by 5-(substituted-benzyl)-2,4-diaminopyrimidines” (J Med Chem, 1981)

How the values were obtained:
[1] = target: T1, Dihydrofolate reductase (Bos taurus) (UniProt P00376)
T1 sequence (whole entry): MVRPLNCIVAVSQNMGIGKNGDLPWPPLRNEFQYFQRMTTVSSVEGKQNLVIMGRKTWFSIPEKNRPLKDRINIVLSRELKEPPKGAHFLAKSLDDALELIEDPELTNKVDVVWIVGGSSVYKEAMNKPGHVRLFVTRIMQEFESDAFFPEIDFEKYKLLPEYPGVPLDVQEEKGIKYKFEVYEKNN
Description: Inhibition of dihydrofolate reductase from bovine liver

[2] = target: T2, Dihydrofolate reductase (Escherichia coli) (UniProt P0ABQ4)
T2 sequence (whole entry): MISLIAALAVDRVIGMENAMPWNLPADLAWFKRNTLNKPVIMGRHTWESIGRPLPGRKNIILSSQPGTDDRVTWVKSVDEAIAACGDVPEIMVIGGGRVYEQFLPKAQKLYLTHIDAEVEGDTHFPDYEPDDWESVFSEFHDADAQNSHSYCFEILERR
Description: Compound is evaluated for the inhibition of dihydrofolate reductase from Escherichia coli

| SMILES | Log 1/Ki app [1] | Log 1/Ki app [2] |
| --- | --- | --- |
| COCc1cccc(Cc2cnc(N)nc2N)c1 | 5.49 | – |
| CCCCOCc1cccc(Cc2cnc(N)nc2N)c1 | 5.86 | – |
| Nc1ncc(Cc2cccc(I)c2)c(N)n1 | 6.15 | – |
| CC(=O)Nc1ccc(Cc2cnc(N)nc2N)cc1[N+](=O)[O-] | 5.16 | 6.97 |
| Nc1ncc(Cc2cccc(C(F)(F)F)c2)c(N)n1 | 5.53 | – |
| COCCOc1c(OC)cc(Cc2cnc(N)nc2N)cc1OC | 4.88 | – |
| Nc1ncc(Cc2cccc(O)c2)c(N)n1 | 4.88 | – |
| Cc1ccc(Cc2cnc(N)nc2N)cc1 | 4.8 | – |
| CS(=O)(=O)Oc1cccc(Cc2cnc(N)nc2N)c1 | 5.58 | 6.92 |
| Nc1ccc(Cc2cnc(N)nc2N)cc1 | 4.57 | – |
| COc1ccc(Cc2cnc(N)nc2N)cc1OC | 5.15 | – |
| Nc1ncc(Cc2cccc(CO)c2)c(N)n1 | 5.2 | – |
| CCCCOc1ccc(Cc2cnc(N)nc2N)cc1 | 5.74 | – |
| Nc1ncc(Cc2ccc(OC(F)(F)F)cc2)c(N)n1 | 5.42 | 6.57 |
